The values below come from patent US10532054B2, “Compounds for the prevention and treatment of cardiovascular diseases” (Resverlogix Corp., priority 2007, dated 2020).

The structures appear in SMILES notation. Where a name gives a salt, the structure may show the parent alone. Some results are limits rather than exact numbers.

In general, melting point refers to the temperature of the solid-liquid transition. `Cc1cc(-c2cc3ncccc3c(=O)[nH]2)cc(C)c1O` (as salt: HCl) [Example 8, 7-(4-hydroxy-3,5-dimethylphenyl)-1,6-naphthyridin-5(6H)-one]: the melting point is more than 350 °C. For `COc1cc(OC)c2c(=O)[nH]c(-c3cc(C)c(O)c(C)c3)cc2n1` (as salt: HCl) [Example 16, 7-(4-hydroxy-3,5-dimethylphenyl)-2,4-dimethoxy-1,6-naphthyridin-5(6H)-one] the value was more than 324 °C; for `COc1cc(OC)c2cnc(-c3cc(C)c(OCCN4CCOCC4)c(C)c3)cc2c1` (as salt: HCl) [Example 22, 4-(2-(4-(6,8-dimethoxyisoquinolin-3-yl)-2,6-dimethylphenoxy)ethyl)morpholine], 239 to 240 °C; for `COc1cc(OC)c2c(=O)[nH]c(-c3cc(C)c(OCCN(C)C)c(C)c3)cc2c1` (as salt: hydrochloride) [Example 10, 3-(4-(2-(dimethylamino)ethoxy)-3,5-dimethylphenyl)-6,8-dimethoxyisoquinolin-1(2H)-one], 261 to 263 °C. The same measure for `Cc1cc(-c2cc3ccc(CN4CCOCC4)cc3c(=O)[nH]2)cc(C)c1O` (as salt: hydrochloride) [Example 11, 3-(4-hydroxy-3,5-dimethylphenyl)-7-(morpholinomethyl)isoquinolin-1(2H)-one]: 281 to 283 °C. `COc1cc(O)nc2cc(-c3cc(C)c(O)c(C)c3)[nH]c(=O)c12` (as salt: hydrochloride) [Example 12, 2-hydroxy-7-(4-hydroxy-3,5-dimethylphenyl)-4-methoxy-1,6-naphthyridin-5(6H)-one] displayed a melting point of more than 330 °C.

As to `COc1cc(OC)c2cnc(-c3cc(C)c(O)c(C)c3)cc2c1` (as salt: hydrochloride) [Example 18, 4-(6,8-dimethoxyisoquinolin-3-yl)-2,6-dimethylphenol], the melting point is 255 to 256 °C. The same measure for `COc1cc(OC)c2c(=O)[nH]c(-c3cc(C)c(OCCN4CCOCC4)c(C)c3)nc2c1` (as salt: hydrochloride) [Example 21, 2-(3,5-dimethyl-4-(2-morpholinoethoxy)phenyl)-5,7-dimethoxyquinazolin-4(3H)-one]: 185 to 187 °C. `COc1cc(OC)c2c(=O)[nH]c(-c3cc(C)c(OCCN4CCN(C)CC4)c(C)c3)cc2c1` (as salt: hydrochloride) [Example 23] returned a melting point of 195 to 198 °C. For `COc1cc(OC)c2c(=O)[nH]c(-c3ccccn3)nc2c1` (as salt: hydrochloride) [Example 26, 5,7-dimethoxy-2-(pyridin-2-yl)quinazolin-4(3H)-one] the value was 215 to 217 °C; for `COc1cc(OC)c2c(=O)[nH]c(-c3cccnc3)nc2c1` (as salt: hydrochloride) [Example 27, 5,7-dimethoxy-2-(pyridin-3-yl)quinazolin-4(3H)-one], 257 to 259 °C; for `COc1cc(OC)c2c(=O)[nH]c(-c3ccncc3)nc2c1` (as salt: hydrochloride) [Example 33, 5,7-dimethoxy-2-(pyridin-4-yl)quinazolin-4(3H)-one], 294 to 295 °C. As for `Cc1cc(-c2nc3ccccc3c(=O)[nH]2)cc(C)c1OCCN1CCOCC1` (as salt: hydrochloride) [Example 34, 2-(3,5-dimethyl-4-(2-morpholinoethoxy)phenyl)quinazolin-4(3H)-one], the melting point lay in the range of 300 to 302 °C. For `COc1cc(OC)c2c(=O)[nH]c(-c3ccc(CN4CCN(C)CC4)cc3)nc2c1` (as salt: hydrochloride) [Example 59, 5,7-dimethoxy-2-(4((4-methylpiperazin-1-yl)methyl)phenyl)quinazolin-4(3H)-one] the value was 275 to 277 °C; for `Cc1cc(-c2nc3ccc(CN4CCOCC4)cc3c(=O)[nH]2)cc(C)c1O` (as salt: hydrochloride) [Example 62, 2-(4-hydroxy-3,5-dimethylphenyl)-6-(morpholinomethyl)quinazolin-4(3H)-one], 284 to 286 °C.

On to `COc1cc(OC)c2c(=O)[nH]c(-c3ccc(CN4CCOCC4)cc3)nc2c1` (as salt: hydrochloride) [Example 66, 5,7-dimethoxy-2-(4-(morpholinomethyl)phenyl)quinazolin-4(3H)-one], for which the melting point was 206 to 208 °C (dec.). `CCN1CCN(Cc2ccc(-c3nc4cc(OC)cc(OC)c4c(=O)[nH]3)cc2)CC1` (as salt: hydrochloride) [Example 67, 2-(4((4-ethylpiperazin-1-yl)methyl)phenyl)-5,7-dimethoxyquinazolin-4(3H)-one]: the melting point is 278 to 280 °C (dec.). The same measure for `O=c1[nH]c(-c2ccc(O)cc2)cc2ccccc12` [Example 1, 3-(4-Hydroxyphenyl)-2H-isoquinolin-1-one]: 239 to 241 °C; for `Oc1ccc(-c2cc3ccccc3cn2)cc1` [Example 2, 4-lsoquinolin-3-yl-phenol]: 218 to 219 °C.

Take `Oc1ccc(-c2cc3ncccc3cn2)cc1` [Example 5, 4-(1,6-naphthyridin-7-yl)phenol]: the melting point was 219 to 221 °C.

`COc1cc(OC)c2c(=O)[nH]c(-c3ccc(O)cc3)cc2c1` [Example 6, 3-(4-hvdroxyphenyl)-6,8-dimethoxyisoquinolin-1(2H)-one] registered a melting point of 245 to 247 °C. The same measure for `COc1cc(OC)c2c(=O)n(C)c(-c3cc(C)c(O)c(C)c3)cc2c1` [Example 7, 3-(4-hydroxy-3,5-dimethylphenyl)-6,8-dimethoxy-2-methylisoquinolin-1(2H)-one]: 253 to 254 °C; for `COc1cc(OC)c2c(=O)[nH]c(-c3cc(C)c(OCC(C)(C)O)c(C)c3)cc2c1` [Example 14, 3-(4-(2-hydroxy-2-methylpropoxy)-3,5-dimethylphenyl)-6,8-dimethoxyisoquinolin-1(2H)-one]: 252 to 254 °C. The same measure for `COc1cc2c(c(OC)c1)S(=O)(=O)NC(c1cc(C)c(O)c(C)c1)=C2` [Example 15, 6,8-dimethoxy-3-(4-hydroxy-3,5-dimethylphenyl)-2H-1,2-benzothiazine-1,1-dioxide]: 246.6 to 247.4 °C; for `COc1cc2cc(-c3cc(C)c(O)c(C)c3)n(C)c(=O)c2c(OC)c1C` [Example 17, 3-(4-hydroxy-3,5-dimethylphenyl)-6,8-dimethoxy-2,7-dimethylisoquinolin-1(2H)-one]: 246 to 248 °C; for `COc1cc(OC)c2c(=O)[nH]c(-c3cc(C(C)(C)C)c(O)c(C(C)(C)C)c3)nc2c1` [Example 28, 2-(3,5-di-tert-butyl-4-hydroxyphenyl)-5,7-dimethoxyquinazolin-4(3H)-one]: 229.7 to 230.5 °C. The same measure for `COc1cc(OC)cc(-c2nc3cc(OC)cc(OC)c3c(=O)[nH]2)c1` [Example 29, 2-(3,5-dimethoxyphenyl)-5,7-dimethoxyquinazolin-4(3H)-one]: 270 to 272 °C; for `COc1ccc(-c2nc3cc(OC)cc(OC)c3c(=O)[nH]2)cc1` [Example 30, 5,7-dimethoxy-2-(4-methoxyphenyl)quinazolin-4(3H)-one]: 276 to 277 °C. As for `COc1cc(OC)c2c(=O)[nH]c(-c3ccc(O)c(OC)c3)nc2c1` [Example 31, 2-(4-hydroxy-3-methoxyphenyl)-5,7-dimethoxyquinazolin-4(3H)-one], the melting point lay in the range of 294 to 296 °C. The same measure for `COc1cc(OC)c2c(=O)[nH]c(-c3ccc(O)c(Cl)c3)nc2c1` [Example 32, 2-(3-chloro-4-hydroxyphenyl)-5,7-dimethoxyquinazolin-4(3H)-one]: 279 to 281 °C; for `Cc1cc(-c2nc3ccccc3c(=O)[nH]2)cc(C)c1OCCO` [Example 35, 2-(4-(2-hydroxyethoxy)-3,5-dimethylphenyl)quinazolin-4(3H)-one]: 260 to 261 °C; for `O=c1[nH]c(-c2ccc3c(c2)OCCO3)nc2ccccc12` [Example 36, 2-(2,3-dihydrobenzo[b][1,4]dioxin-6-yl)quinazolin-4(3H)-one]: 267 to 268 °C (dec.).

The molecule `COc1cc(OC)c2c(=O)[nH]c(-c3ccc(N(C)C)c4ccccc34)nc2c1` [Example 37, 2-(4-(dimethylamino)naphthalen-1-yl)-5,7-dimethoxyquinazolin-4(3H)-one] yielded a melting point of 269 to 271 °C. For `COc1cc(OC)c2c(=O)[nH]c(-c3ccc(OCC(N)=O)cc3)nc2c1` [Example 38, 2-(4-(5,7-dimethoxy-4-oxo-3,4-dihydroquinazolin-2-yl)phenoxy)acetamide] the value was 309 to 311 °C; for `O=C(O)COc1ccc(-c2nc3ccccc3c(=O)[nH]2)cc1` [Example 39, 2-(4-(4-oxo-3,4-dihydroquinazolin-2-yl)phenoxy)acetic acid], 285 to 287 °C; for `CN(C)c1ccc(-c2nc3ccccc3c(=O)[nH]2)c2ccccc12` [Example 40, 2-(4-(dimethylamino)naphthalen-1-yl)quinazolin-4(3H)-one], 224 to 226 °C.

For `NC(=O)COc1ccc(-c2nc3ccccc3c(=O)[nH]2)cc1` [Example 41, 2-(4-(4-oxo-3,4-dihydroquinazolin-2-yl)phenoxy)acetamide], the melting point lay within 277.5 to 278.5 °C. For `COc1cc(OC)c2c(=O)[nH]c(-c3ccc4c(c3)OCCO4)nc2c1` [Example 42, 2-(2,3-dihydrobenzo[b][1,4]dioxin-6-yl)-5,7-dimethoxyquinazolin-4(3H)-one] the value was 307.5 to 309.6 °C.

`COc1cc2nc(-c3ccc(N(C)C)c4ccccc34)[nH]c(=O)c2cc1OC` [Example 44] displayed a melting point of 235.5 to 236.5 °C. For `O=c1[nH]c(-c2ccc(N(CCO)CCO)cc2)nc2ccccc12` [Example 45, 2-(4-(bis(2-hydroxyethyl)amino)phenyl)quinazolin-4(3H)-one] the value was 228 to 230 °C; for `COc1cc(OC)c2c(=O)[nH]c(-c3ccc(N(CCO)CCO)cc3)nc2c1` [Example 46, 2-(4-(bis(2-hydroxyethyl)amino)phenyl)-5,7-dimethoxyquinazolin-4(3H)-one], 249 to 251 °C.
